Assay results from PMC3996151, “Safety and pharmacological characterization of the molecular tweezer CLR01 – a broad-spectrum inhibitor of amyloid proteins’ toxicity” (BMC Pharmacology & Toxicology, 2014).
Several values for one entry are separate records, joined by “and”; a condition that tells them apart may be missing. Equal entries are not always repeated. Where two headings read alike, the source gives them in different places.

Tests used:
[1] = Blood-brain barrier permeability with 3H-CLR01 IV (scintillation counting of blood and brain); type: in vivo, mouse; conditions: 40-μg/kg/day dose, 15-m old 3×Tg mice, estimate
α-synuclein (α-syn) = test system: α-synuclein (α-syn); parameters: method as in PMID 22373667; conditions: up to 10 μM in the water environment; cited from earlier work
[2] = test system: nerve growth factor-differentiated rat pheochromocytoma cells; parameters: method as in PMID 21916458, PMID 22860214; conditions: cited from earlier work
[3] = parameters: method as in PMID 23183235; conditions: mouse liver microsomes; cited from earlier work
[4] = parameters: method as in PMID 23183235; conditions: mouse plasma; cited from earlier work
[5] = Blood-brain barrier permeability with 3H-CLR01 IV (scintillation counting of blood and brain); type: in vivo, mouse; conditions: for Blood radioactivity levels, % of the injected levels: 0.5 h following IV injection; for Brain radioactivity after double injection compared to one injection: two 11.86-μg/g injections
Method: The following groups of mice were used for CLR01 BBB penetration studies: 3×Tg and the corresponding WT mice at 2-m, 12-m, and 22 - 24-m (hereafter referred to as 22-m) of age. The groups were: 2-m WT, 2-m Tg, 12-m WT, 12-m Tg, 22-m WT, 22-m Tg. Mice were administered ^3H-CLR01 intravenously. Two μCi per gram of mouse body weight, which are equal to 11.86 μg/g of CLR01 in which ^3H-CLR01 made up 10% of the total CLR01, were injected into the jugular vein. Blood and brain were collected at 0.5, 1, 3, 8, 24, or 72 h (not all time points were collected for all groups, see the Results section). For times ≤ 3 h, mice were anesthetized by IP injection of ketamine and xylazine. The mice remained anesthetized following the injection until the specified time point, at which point they were given a lethal dose of pentobarbital. Then, blood was collected via a cardiac puncture, and the brain harvested with or without a perfusion step Pharmacokinetics of CLR01 in vivo. For time points 8–72 h, mice were not anesthetized and ^3H-CLR01 was injected into the tail vein. This change was due to the difficulty of keeping mice anesthetized for longer than 3 h. No differences were observed between mice given anesthesia and jugular vein injections and mice receiving tail vein injections.
Euthanasia procedures were the same as described above. For all mice, one hemisphere of the brain and 100–350 μl of blood were separately digested following instructions from Perkin-Elmer (document: Scintillation Cocktails and Consumables) with 1 ml Solvable (Perkin-Elmer, Waltham, MA), added to Ultima Gold Liquid Scintillation Cocktail (Perkin-Elmer) and read in a Triathler Liquid Scintillation Counter model 425–034, (Hidex, Turku, Finland). Brain permeability percentage was calculated as counts per minute (CPM) per g of brain relative to CPM per ml of blood. The data are an average of values from three mice per genotype/age/time combination.
For CLR01 transport-saturation studies using 5× the CLR01 dose, ^3H-CLR01 was kept at 10% of the total CLR01 mixture and a total of 59.3 μg of CLR01 (10 μCi) per g of mouse body weight was injected IV (22-m WT 5× dose). For CLR01 brain-accumulation studies, two 11.86-μg/g injections were administered at equal time intervals (22-m WT 2× inj). In these experiments, mice were injected at time = 0 and at t = ½ of euthanasia time. For example, in the original, single-injection experiments, a mouse would receive an injection at t = 0 and then be euthanized at t = 1 h. In this experiment, a mouse received one injection at t = 0, a second injection at t = 0.5 h, and then was euthanized at t = 1 h.
In experiments using ^3H-CLR01, urine was collected when possible over the period between injection and euthanasia. […] We could not normalize the radioactivity because the amount of urine in the bladder prior to injection and the volume produced during the experiment could not be calculated.
To correct for the radioactivity associated with blood-borne ^3H-CLR01 in the brain vasculature, we performed both perfusion and subtraction analyses. In perfusion experiments, WT and 3×Tg mice at each of the three ages analyzed (n = 3 per group) were perfused with phosphate buffered saline following euthanasia. Perfusion lasted for either 5 min or until the liver changed color from a red to yellow, whichever was longer. In other experiments, mice were not perfused, but radioactivity associated with 10 μl of blood per g of brain [29, 30] was calculated based on brain weight and blood radioactivity levels and subtracted from brain radioactivity levels. At 1 h post injection, perfusion-corrected brain values were statistically similar to subtraction-corrected brain values (Figure 5). […]

## O=P(O)(O)Oc1c2c(c(OP(=O)(O)O)c3c1C1CC3c3cc4c(cc31)C1CC4c3ccccc31)C1CC2c2cc3c(cc21)C1CC3c2ccccc21 [CLR01]
[1]
  Estimated amount of CLR01 entering the brain per day: ~ 200 fmol
α-synuclein (α-syn)
  Effect in zebrafish model of α-syn toxicity: prevented deformation and mortality
[2]
  Concentration at which a mild decrease in cell viability was observed: 400 µM
  Concentration up to which no toxicity was detected: up to 200 μM
[3]
  Stability: 100%
[4]
  Stability: 100%
[5]; 0.5 - 72 h post-injection, IV
  Brain radioactivity levels over time: did not change significantly up to 72 h post-injection
[5]; 1× CLR01 dose, 1 h, 22-m old WT mice
  Brain penetration, % of blood: 0.86 ± 0.30%
[5]; 5× CLR01 dose (59.3 μg/g), 1 h, 22-m old WT mice
  Brain penetration, % of blood: 0.97 ± 0.28%
[5]; 5× CLR01 dose, 22-m old WT mice, on average
  Absolute amount of radioactivity in the brain relative to 1× dose: 5 times
[5]; 12-m old 3×Tg mice
  Blood radioactivity levels, % of the injected levels: 40 ± 6%
[5]; 12-m old WT mice
  Blood radioactivity levels, % of the injected levels: 39 ± 13%
[5]; 1 h, 22-m old WT mice
  Brain radioactivity after double injection compared to one injection: 3.3 ×
[5]; 1 h following IV injection, 2-m old 3×Tg mice
  Brain-radioactivity levels as a percentage of blood-radioactivity levels (CPM/g)/(CPM/ml): 3.09 ± 0.55%
[5]; 1 h following IV injection, 2-m old WT mice
  Brain-radioactivity levels as a percentage of blood-radioactivity levels (CPM/g)/(CPM/ml): 2.68 ± 0.31%
[5]; 1 h following IV injection, 12-m old 3×Tg mice
  Brain-radioactivity levels as a percentage of blood-radioactivity levels (CPM/g)/(CPM/ml): 1.43 ± 0.17%
[5]; 1 h following IV injection, 12-m old WT mice
  Brain-radioactivity levels as a percentage of blood-radioactivity levels (CPM/g)/(CPM/ml): 2.11 ± 0.69%
[5]; 1 h following IV injection, 24-m old 3×Tg mice
  Brain-radioactivity levels as a percentage of blood-radioactivity levels (CPM/g)/(CPM/ml): 1.45 ± 0.28%
[5]; 1 h following IV injection, 24-m old WT mice
  Brain-radioactivity levels as a percentage of blood-radioactivity levels (CPM/g)/(CPM/ml): 0.86 ± 0.17%
[5]; 1 h following IV injection, depending on age and genotype (WT versus 3×Tg)
  Brain-radioactivity levels as a percentage of blood-radioactivity levels, over all groups: 0.86–3.09% and 1 - 3% and ~ 2%
[5]; 3 h, 22-m old WT mice
  Brain radioactivity after double injection compared to one injection: 1.6 ×
[5]; 8 h, 22-m old WT mice
  Brain radioactivity after double injection compared to one injection: 1.9 ×
[5]; after 8 h, IV
  Radioactivity observed at 0.5 h remaining in the blood: 5 - 10%
[5]; single IV injection 11.86 μg/g
  Brain CLR01 radioactivity levels per g of brain, most group × time combinations: 10,000 - 20,000 CPM/g
[5]; urine collected between injection and euthanasia
  Route of excretion (urine radioactivity, qualitative): excreted through the urine
